The values below come from article PMC9841527 (Journal of Medicinal Chemistry, 2022).

The target in assay [1] is T1, CamA (Clostridioides difficile, UniProt Q183J3).
T1 sequence (Q183J3 1-577): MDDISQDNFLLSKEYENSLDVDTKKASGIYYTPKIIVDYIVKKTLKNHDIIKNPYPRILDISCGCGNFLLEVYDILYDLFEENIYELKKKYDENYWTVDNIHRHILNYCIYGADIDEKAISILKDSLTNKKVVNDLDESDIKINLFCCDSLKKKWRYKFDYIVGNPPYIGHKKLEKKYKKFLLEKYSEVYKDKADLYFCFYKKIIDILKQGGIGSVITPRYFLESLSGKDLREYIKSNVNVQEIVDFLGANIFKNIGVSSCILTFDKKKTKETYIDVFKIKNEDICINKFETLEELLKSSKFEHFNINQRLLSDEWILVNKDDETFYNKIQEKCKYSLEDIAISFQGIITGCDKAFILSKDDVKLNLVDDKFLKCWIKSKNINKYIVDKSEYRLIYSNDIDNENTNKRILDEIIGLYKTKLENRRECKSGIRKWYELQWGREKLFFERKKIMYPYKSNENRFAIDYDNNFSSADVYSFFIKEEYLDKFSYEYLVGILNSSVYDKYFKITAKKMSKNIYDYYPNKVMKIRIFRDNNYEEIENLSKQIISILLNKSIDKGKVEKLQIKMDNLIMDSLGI
It counts as biochemical.

For assay [2], the target named is T1, CamA. Nature of the assay: Isothermal titration calorimetry. The assay is classed as binding.
In a further assay the target is Dnmt3a-Dnmt3L (Mus musculus, UniProt O88508). The assay is classed as biochemical.
A further assay addresses PCIF1 (Homo sapiens, UniProt Q9H4Z3). It counts as biochemical.
The next assay has as its target MettL5-Trm112 (Homo sapiens, UniProt Q9NRN9). The assay is classed as biochemical.
The next assay deals with T2, MettL16 (Homo sapiens, UniProt Q86W50).
T2 sequence (Q86W50 1-562): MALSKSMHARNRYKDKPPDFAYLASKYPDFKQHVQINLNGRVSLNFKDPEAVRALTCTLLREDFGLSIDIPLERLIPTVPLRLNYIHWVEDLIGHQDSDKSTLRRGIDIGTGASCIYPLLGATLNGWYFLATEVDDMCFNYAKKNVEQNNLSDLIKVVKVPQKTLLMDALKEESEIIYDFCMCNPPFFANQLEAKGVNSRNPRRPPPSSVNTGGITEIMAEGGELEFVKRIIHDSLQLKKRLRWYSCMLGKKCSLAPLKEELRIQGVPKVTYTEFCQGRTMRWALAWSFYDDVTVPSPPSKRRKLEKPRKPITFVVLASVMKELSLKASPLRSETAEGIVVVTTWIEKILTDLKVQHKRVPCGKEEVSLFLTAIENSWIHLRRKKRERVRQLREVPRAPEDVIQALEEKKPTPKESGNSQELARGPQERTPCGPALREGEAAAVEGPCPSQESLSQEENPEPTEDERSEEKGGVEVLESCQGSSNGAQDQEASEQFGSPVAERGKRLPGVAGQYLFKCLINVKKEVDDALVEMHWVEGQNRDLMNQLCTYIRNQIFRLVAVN
Nature of the assay: Selectivity assay, MettL16. The assay is classed as biochemical. As to conditions: [I] = 10 μM, [SAM] = 160 μM or 30 μM.

The target in the next assay is EZH2 complex (Homo sapiens, UniProt Q15910). Description: Selectivity assay, EZH2 complex. The assay is classed as biochemical. As to conditions: compound 10 μM, 3H-SAM 1 μM.
In assay [3] the target is T3, A1 adenosine receptor (A1AR) (Homo sapiens, UniProt P30542).
T3 sequence (P30542 1-326): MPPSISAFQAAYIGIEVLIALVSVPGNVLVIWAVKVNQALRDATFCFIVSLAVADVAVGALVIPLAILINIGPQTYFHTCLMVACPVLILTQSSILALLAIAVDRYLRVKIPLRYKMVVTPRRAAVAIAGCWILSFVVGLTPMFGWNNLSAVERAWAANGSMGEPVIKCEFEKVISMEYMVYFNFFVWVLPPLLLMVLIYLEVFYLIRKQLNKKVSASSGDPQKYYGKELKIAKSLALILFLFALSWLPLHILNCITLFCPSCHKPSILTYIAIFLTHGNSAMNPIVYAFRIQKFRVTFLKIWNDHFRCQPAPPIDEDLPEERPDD
Nature of the assay: A1AR agonist radioligand binding assay. As to conditions: compound 10 μM, [3H]CCPA 1 nM, transfected CHO cell membranes.

Sequence of PCIF1 (Q9H4Z3 whole entry): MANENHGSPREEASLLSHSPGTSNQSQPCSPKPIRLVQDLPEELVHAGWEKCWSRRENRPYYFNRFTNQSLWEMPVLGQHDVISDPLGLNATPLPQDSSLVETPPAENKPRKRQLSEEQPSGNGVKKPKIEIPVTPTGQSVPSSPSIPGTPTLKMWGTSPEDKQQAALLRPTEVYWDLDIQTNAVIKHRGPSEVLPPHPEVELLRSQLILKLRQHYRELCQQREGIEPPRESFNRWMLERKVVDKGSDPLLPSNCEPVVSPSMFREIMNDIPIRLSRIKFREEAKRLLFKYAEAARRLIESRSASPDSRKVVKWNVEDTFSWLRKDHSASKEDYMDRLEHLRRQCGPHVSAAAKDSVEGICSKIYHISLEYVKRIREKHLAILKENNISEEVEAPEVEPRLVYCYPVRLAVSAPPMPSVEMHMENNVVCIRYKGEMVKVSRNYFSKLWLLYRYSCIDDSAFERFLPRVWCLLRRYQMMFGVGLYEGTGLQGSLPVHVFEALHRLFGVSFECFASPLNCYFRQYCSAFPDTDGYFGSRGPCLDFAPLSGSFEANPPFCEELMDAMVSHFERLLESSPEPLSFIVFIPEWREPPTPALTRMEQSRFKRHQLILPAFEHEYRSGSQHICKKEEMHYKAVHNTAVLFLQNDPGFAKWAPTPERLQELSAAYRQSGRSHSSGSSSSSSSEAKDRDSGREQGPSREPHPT
Sequence of EZH2 complex (Q15910 whole entry): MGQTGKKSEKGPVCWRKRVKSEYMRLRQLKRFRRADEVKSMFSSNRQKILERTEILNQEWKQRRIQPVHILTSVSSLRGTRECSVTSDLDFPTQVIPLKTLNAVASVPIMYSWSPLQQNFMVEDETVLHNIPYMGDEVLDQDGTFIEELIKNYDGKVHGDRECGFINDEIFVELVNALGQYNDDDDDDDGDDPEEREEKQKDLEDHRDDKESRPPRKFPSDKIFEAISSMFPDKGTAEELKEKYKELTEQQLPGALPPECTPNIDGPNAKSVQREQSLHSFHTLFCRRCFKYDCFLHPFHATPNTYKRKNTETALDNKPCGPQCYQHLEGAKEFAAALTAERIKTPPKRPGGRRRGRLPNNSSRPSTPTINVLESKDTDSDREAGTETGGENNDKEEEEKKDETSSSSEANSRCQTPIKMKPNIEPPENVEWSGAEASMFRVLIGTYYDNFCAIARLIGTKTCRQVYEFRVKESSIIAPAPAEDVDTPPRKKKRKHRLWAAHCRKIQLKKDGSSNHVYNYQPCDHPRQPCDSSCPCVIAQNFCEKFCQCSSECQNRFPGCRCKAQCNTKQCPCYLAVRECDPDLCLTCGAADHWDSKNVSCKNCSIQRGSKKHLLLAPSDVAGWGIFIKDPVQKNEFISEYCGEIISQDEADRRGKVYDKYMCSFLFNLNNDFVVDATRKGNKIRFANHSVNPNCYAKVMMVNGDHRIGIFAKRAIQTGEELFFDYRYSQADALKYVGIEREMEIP
Sequence of EZH2 complex (O75530 whole entry partner): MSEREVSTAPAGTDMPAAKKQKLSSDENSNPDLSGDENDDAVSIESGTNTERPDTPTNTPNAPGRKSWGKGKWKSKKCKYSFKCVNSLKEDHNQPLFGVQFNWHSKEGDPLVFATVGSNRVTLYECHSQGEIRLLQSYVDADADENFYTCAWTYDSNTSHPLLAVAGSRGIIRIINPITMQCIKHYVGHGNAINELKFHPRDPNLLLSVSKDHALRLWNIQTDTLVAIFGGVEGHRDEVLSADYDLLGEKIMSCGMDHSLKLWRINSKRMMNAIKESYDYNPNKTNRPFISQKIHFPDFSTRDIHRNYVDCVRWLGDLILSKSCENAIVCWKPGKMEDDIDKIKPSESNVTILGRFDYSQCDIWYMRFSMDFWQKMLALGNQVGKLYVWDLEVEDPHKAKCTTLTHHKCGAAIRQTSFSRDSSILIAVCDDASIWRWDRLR
Sequence of EZH2 complex (Q15022 whole entry partner): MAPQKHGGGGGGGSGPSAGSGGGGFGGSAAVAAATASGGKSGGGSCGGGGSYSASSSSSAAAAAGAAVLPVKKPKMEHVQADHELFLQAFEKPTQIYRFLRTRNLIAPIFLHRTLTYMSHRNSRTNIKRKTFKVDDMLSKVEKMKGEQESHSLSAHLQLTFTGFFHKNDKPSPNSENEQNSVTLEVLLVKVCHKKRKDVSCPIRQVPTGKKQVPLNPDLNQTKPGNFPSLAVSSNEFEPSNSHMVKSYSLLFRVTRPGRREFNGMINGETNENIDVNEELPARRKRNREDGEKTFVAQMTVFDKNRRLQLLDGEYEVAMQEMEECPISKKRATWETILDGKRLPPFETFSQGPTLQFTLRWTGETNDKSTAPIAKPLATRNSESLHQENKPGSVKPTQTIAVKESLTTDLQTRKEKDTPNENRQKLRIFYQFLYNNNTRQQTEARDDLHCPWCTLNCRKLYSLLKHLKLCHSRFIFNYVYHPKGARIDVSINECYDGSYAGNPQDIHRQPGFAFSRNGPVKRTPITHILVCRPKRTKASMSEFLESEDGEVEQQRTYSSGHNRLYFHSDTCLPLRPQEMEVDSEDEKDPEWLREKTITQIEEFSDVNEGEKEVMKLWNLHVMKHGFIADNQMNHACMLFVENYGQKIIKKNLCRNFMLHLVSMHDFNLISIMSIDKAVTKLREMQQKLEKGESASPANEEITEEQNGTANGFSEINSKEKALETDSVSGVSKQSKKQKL
Sequence of EZH2 complex (Q09028 whole entry partner): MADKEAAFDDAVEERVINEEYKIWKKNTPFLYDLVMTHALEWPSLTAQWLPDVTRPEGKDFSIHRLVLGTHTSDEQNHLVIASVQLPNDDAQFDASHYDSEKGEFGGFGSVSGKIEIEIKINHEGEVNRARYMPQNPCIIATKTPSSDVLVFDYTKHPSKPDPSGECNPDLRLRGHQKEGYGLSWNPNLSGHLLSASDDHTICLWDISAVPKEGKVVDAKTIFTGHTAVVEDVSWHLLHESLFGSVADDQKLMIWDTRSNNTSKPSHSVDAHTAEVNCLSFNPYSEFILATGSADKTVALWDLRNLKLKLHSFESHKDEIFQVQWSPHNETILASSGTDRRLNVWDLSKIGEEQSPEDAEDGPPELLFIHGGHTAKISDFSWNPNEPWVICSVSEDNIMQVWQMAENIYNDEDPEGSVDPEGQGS
Sequence of EZH2 complex (Q6ZN18 whole entry partner): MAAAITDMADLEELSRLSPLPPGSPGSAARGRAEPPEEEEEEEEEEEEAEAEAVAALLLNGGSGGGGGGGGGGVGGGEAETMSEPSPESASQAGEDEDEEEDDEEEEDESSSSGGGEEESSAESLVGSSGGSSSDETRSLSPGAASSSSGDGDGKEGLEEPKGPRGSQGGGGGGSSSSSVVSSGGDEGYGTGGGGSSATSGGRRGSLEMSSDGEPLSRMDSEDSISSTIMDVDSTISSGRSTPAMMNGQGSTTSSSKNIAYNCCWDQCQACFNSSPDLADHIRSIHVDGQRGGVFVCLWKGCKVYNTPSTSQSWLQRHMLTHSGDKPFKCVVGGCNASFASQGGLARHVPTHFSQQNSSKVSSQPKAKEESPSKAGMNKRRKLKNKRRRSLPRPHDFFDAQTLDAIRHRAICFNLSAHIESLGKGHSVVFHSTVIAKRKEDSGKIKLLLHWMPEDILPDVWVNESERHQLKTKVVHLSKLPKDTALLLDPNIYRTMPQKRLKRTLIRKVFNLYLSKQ
Sequence of MettL5-Trm112 (Q9NRN9 whole entry): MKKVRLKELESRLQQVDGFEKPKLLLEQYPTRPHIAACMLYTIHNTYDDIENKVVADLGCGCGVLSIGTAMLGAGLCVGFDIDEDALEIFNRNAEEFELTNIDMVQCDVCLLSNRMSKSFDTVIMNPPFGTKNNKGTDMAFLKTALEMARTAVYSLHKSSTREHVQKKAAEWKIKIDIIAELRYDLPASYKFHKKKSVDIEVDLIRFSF
Sequence of MettL5-Trm112 (Q9UI30 whole entry partner): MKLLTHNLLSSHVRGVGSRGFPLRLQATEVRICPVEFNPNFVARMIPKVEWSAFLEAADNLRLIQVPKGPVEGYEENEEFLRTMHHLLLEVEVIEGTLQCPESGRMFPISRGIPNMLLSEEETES

For the compound `OC[C@H]1O[C@@H](n2cnc3c(NCCCc4ccc(O)cc4)ncnc32)[C@H](O)[C@@H]1O` [Compound 16, (2R,3S,4R,5R)-2-(Hydroxymethyl)-5-(6-((3-(4-hydroxyphenyl)propyl)amino)-9H-purin-9-yl)tetrahydrofuran-3,4-diol], the “lower IC50 value, fold” value at CamA [1] is on record as approximately 2.7 X. In addition, the “lower KD value, fold” value on CamA [2] (compared to compound 15) was approximately 6.5 X. Moreover, the “inhibition of Dnmt3a-Dnmt3L” value on Dnmt3a-Dnmt3L is “none of them showed any significant inhibition”. At PCIF1, the “inhibition of PCIF1” value was “none of them showed any significant inhibition”. Besides, at MettL5-Trm112, the “inhibition of MettL5-Trm112” value is “none of them showed any significant inhibition”. The “inhibition of MettL16” value against MettL16 is “none of them showed any significant inhibition”. Moreover, at EZH2 complex, the “inhibition of EZH2 complex” value is recorded as “none of them showed any significant inhibition”. Further, the “inhibition of control radioligand specific binding, A1AR” value in assay [3] is given as “minimal inhibition of specific binding”.

Take `CC(C)(C)OC(=O)N1CCC(CCCNc2ncnc3c2ncn3[C@@H]2O[C@H](CO)[C@@H](O)[C@H]2O)CC1` [Compound 39, tert-Butyl-4-(3-((9-((2R,3R,4S,5R)-3,4-dihydroxy-5-(hydroxymethyl)tetrahydrofuran-2-yl)-9H-purin-6-yl)amino)propyl)piperidine-1-carboxylate]: at CamA [1], the “higher potency, fold” value is on record as 12 ×. At CamA [2] (KD ± SD, ITC, 25 °C), this compound had a dissociation constant (Kd) of approximately 200 nM. Besides, at CamA [2] (from that of compound 37), the “KD improved, fold” value is reported as approximately 8 ×. The “inhibition of Dnmt3a-Dnmt3L” value against Dnmt3a-Dnmt3L is on record as “none of them showed any significant inhibition”. At PCIF1, the “inhibition of PCIF1” value is recorded as “none of them showed any significant inhibition”. Further, the “inhibition of MettL5-Trm112” value against MettL5-Trm112 is reported as “none of them showed any significant inhibition”. Also, at MettL16, the “inhibition of MettL16” value was “none of them showed any significant inhibition”. Moreover, the “inhibition of EZH2 complex” value on EZH2 complex was “none of them showed any significant inhibition”. In addition, in assay [3], the “inhibition of control radioligand specific binding, A1AR” value is reported as “minimal inhibition of specific binding”.
